Data: patent US20230014907A1, “INHIBITORS OF APOL1 AND METHODS OF USING SAME” (Vertex Pharmaceuticals Incorporated, priority 2020, published 2023)

Target: T1, G1 APOL1 (Homo sapiens, UniProt O14791, I384M/S342G)
T1 construct: expressed in transfected cells
T1 sequence (O14791 28-398 S342G/I384M): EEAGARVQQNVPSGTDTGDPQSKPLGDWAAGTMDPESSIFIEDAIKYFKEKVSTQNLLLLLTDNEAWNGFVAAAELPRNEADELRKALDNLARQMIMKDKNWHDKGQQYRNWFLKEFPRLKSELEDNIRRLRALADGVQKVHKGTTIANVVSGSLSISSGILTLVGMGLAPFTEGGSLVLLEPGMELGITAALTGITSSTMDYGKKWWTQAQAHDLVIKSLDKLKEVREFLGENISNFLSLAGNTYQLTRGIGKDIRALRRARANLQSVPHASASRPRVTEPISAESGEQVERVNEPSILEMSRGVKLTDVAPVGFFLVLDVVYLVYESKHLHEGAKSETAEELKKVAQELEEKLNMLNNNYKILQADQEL
Assay: Acute APOL1 Thallium Assay with Inducible Stable Clones of HEK 293 Cells
Assay type: cell-based
Conditions: not given
Summary of the method: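 Pore activity was read as the fluorescence increase from Tl+ entering cells loaded with an AM-ester thallium indicator dye. The cells were tetracycline-inducible HEK293 T-Rex expressing G1 APOL1 (clone DC3.25), induced when plated at 26000 per well and incubated at 37° C.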

Row | SMILES | IC50 [nM]
1 | CN(C)CCc1c(-c2ccc(F)cc2)[nH]c2c(F)cc(F)cc12 [Compound 429, 2-[5,7-difluoro-2-(4-fluorophenyl)-1H-indol-3-yl]-N,N-dimethyl-ethanamine] | > 1000

Same assay, conditions: HEK 293 inducible stable clones, G1 APOL1; read-out: Thallium Assay (IC50)

Row | SMILES | IC50 [nM]
2 | CC(O)(CO)CNC(=O)CCCc1c(-c2ccc(F)cc2)[nH]c2c(F)cc(F)cc12 (centres unmarked) [Compound 250] | > 1000
3 | O=C(NCCc1c(-c2ccc(F)cc2)[nH]c2c(F)cc(F)cc12)[C@H]1CC[C@@H](O)CC1 [Compound 324] | > 1000
4 | Cn1nccc1C(=O)NCCc1c(-c2ccc(F)cc2)[nH]c2c(F)cc(F)cc12 [Compound 392] | 250 to 1000
5 | O=C(CCc1c(-c2ccc(F)cc2)[nH]c2c(F)cc(Cl)cc12)N[C@H](CO)C(F)(F)F [Compound 205] | > 1000
6 | NC(=O)C1(NC(=O)OCCc2c(-c3ccc(F)cc3)[nH]c3c(F)cc(F)cc23)CC1 [Compound 473] | 250 to 1000
7 | O=C1CC(C(=O)NCCc2c(-c3ccc(F)cc3)[nH]c3c(F)cc(F)cc23)NC(=O)N1 (centres unmarked) [Compound 309] | > 1000
8 | O=C1N[C@H](C(=O)NCCc2c(-c3ccc(F)cc3)[nH]c3c(F)cc(F)cc23)CO1 [Compound 336] | > 1000
9 | NC(=O)C1(NC(=O)CCc2c(-c3ccc(F)cc3)[nH]c3c(F)cc(F)cc23)CC1 [Compound 107] | 250 to 1000
10 | CC(C)(C)OC(=O)NC1(C(=O)NCCc2c(-c3ccc(F)cc3)[nH]c3c(F)cc(F)cc23)CCC1 [Compound 311] | > 1000
11 | C[C@H](O)CNC(=O)OCCc1c(-c2ccc(F)cc2)[nH]c2c(F)cc(F)cc12 [Compound 462] | 250 to 1000
12 | CC(=O)NCC(=O)NCCc1c(-c2ccc(F)cc2)[nH]c2c(F)cc(F)cc12 [Compound 344] | > 1000
13 | Cn1cnc(CNC(=O)CCCc2c(-c3ccc(F)cc3)[nH]c3c(F)cc(F)cc23)c1 [Compound 244] | > 1000
14 | NCCc1c(-c2ccc(F)cc2)[nH]c2c(F)cc(F)cc12 [Compound 432, 2-[5,7-difluoro-2-(4-fluorophenyl)-1H-indol-3-yl]ethanamine] | > 1000
15 | O=C(NCCc1c(-c2ccc(F)cc2)[nH]c2c(F)cc(F)cc12)c1cc[nH]n1 [Compound 351] | > 1000
16 | Cn1ccnc1C(=O)NCCc1c(-c2ccc(F)cc2)[nH]c2c(F)cc(F)cc12 [Compound 388] | 250 to 1000
17 | O=C(NC1CC(F)(F)C1)OCCc1c(-c2ccc(F)cc2)[nH]c2c(F)cc(F)cc12 [Compound 465] | 250 to 1000
18 | C[C@H](O)[C@H](CO)NC(=O)OCCc1c(-c2ccc(F)cc2)[nH]c2c(F)cc(F)cc12 [Compound 442] | < 250
19 | CC(C)(C#N)C(=O)NCCc1c(-c2ccc(F)cc2)[nH]c2c(F)cc(F)cc12 [Compound 411] | 250 to 1000
20 | O=C(NCc1ncc[nH]1)OCCc1c(-c2ccc(F)cc2)[nH]c2c(F)cc(F)cc12 [Compound 484] | > 1000
21 | O=C(NCc1cnco1)OCCc1c(-c2ccc(F)cc2)[nH]c2c(F)cc(F)cc12 [Compound 477] | > 1000
22 | O=C(NC1CC(O)C1)OCCc1c(-c2ccc(F)cc2)[nH]c2c(F)cc(F)cc12 (centres unmarked) [Compound 466] | 250 to 1000
23 | CC(O)CCNC(=O)OCCc1c(-c2ccc(F)cc2)[nH]c2c(F)cc(F)cc12 (centres unmarked) [Compound 483] | > 1000

Row | SMILES | IC50 [nM]
24 | NC(=O)CNC(=O)CCCc1c(-c2ccc(F)cc2)[nH]c2c(F)cc(F)cc12 [Compound 246] | > 1000
25 | Cc1cc(F)c2[nH]c(-c3ccc(F)cc3)c(CCC(=O)N[C@H](CO)C(N)=O)c2c1 [Compound 220] | > 1000
26 | NC1(C(=O)NCCc2c(-c3ccc(F)cc3)[nH]c3c(F)cc(F)cc23)CCC1 [Compound 349] | 250 to 1000
27 | O=C(CC1CC(=O)NC(=O)C1)NCCc1c(-c2ccc(F)cc2)[nH]c2c(F)cc(F)cc12 [Compound 318] | > 1000
28 | O=C(CCCc1c(-c2ccc(F)cc2)[nH]c2c(F)cc(F)cc12)N1C[C@@H](O)[C@H](O)C1 [Compound 248] | > 1000
29 | CC(O)C(C)NC(=O)OCCc1c(-c2ccc(F)cc2)[nH]c2c(F)cc(F)cc12 (mixture of isomers) [Compound 453] | 250 to 1000
30 | O=C(NCCc1c(-c2ccc(F)cc2)[nH]c2c(F)cc(F)cc12)C1(F)CCC1 [Compound 406] | 250 to 1000
31 | O=C(NCCc1c(-c2ccc(F)cc2)[nH]c2c(F)cc(F)cc12)c1cccnn1 [Compound 396] | > 1000
32 | OC1(CC#Cc2c(-c3ccc(F)cc3)[nH]c3c(F)cc(F)cc23)CCC1 [Compound 525, 1-[3-[5,7-difluoro-2-(4-fluorophenyl)-1H-indol-3-yl]prop-2-ynyl]cyclobutanol] | > 1000
33 | O=C(NCCc1c(-c2ccc(F)cc2)[nH]c2c(F)cc(F)cc12)C1CC(O)(C(F)(F)F)C1 (centres unmarked) [Compound 314] | > 1000
34 | O=C(NCCc1c(-c2ccc(F)cc2)[nH]c2c(F)cc(F)cc12)N[C@@H](CO)C(F)(F)F [Compound 261] | 250 to 1000
35 | O=C(Cn1cncn1)NCCc1c(-c2ccc(F)cc2)[nH]c2c(F)cc(F)cc12 [Compound 386] | > 1000
36 | O=C1CC(C(=O)NCCc2c(-c3ccc(F)cc3)[nH]c3c(F)cc(F)cc23)CCN1 (centres unmarked) [Compound 331] | > 1000
37 | O=C(NC(CO)C1CC1)OCCc1c(-c2ccc(F)cc2)[nH]c2c(F)cc(F)cc12 (centres unmarked) [Compound 451] | < 250
38 | O=C(N[C@H]1CCOC1)OCCc1c(-c2ccc(F)cc2)[nH]c2c(F)cc(F)cc12 [Compound 469] | 250 to 1000
39 | CC(C)(C)[C@H](CO)NC(=O)NCCc1c(-c2ccc(F)cc2)[nH]c2c(F)cc(F)cc12 [Compound 265] | > 1000
40 | C[C@H](NC(=O)NCCc1c(-c2ccc(F)cc2)[nH]c2c(F)cc(F)cc12)C(=O)O [Compound 281] | > 1000
41 | CO[C@H]1C[C@@H](NC(=O)OCCc2c(-c3ccc(F)cc3)[nH]c3c(F)cc(F)cc23)C1 [Compound 496] | > 1000
42 | C[C@H](CO)NC(=O)CCc1c(-c2ccc(F)cc2)[nH]c2c(F)cc(Cl)cc12 [Compound 208] | < 250
43 | O=C(NCCc1c(-c2ccc(F)cc2)[nH]c2c(F)cc(F)cc12)C(O)C1CC1 (centres unmarked) [Compound 346] | 250 to 1000
44 | CN1CC(NC(=O)OCCc2c(-c3ccc(F)cc3)[nH]c3c(F)cc(F)cc23)CC1=O (centres unmarked) [Compound 494] | > 1000
45 | Cc1cc(F)c2[nH]c(-c3ccc(F)cc3)c(CCC(=O)NC(C)(CO)CO)c2c1 [Compound 225] | > 1000

Row | SMILES | IC50 [nM]
46 | CCOCCc1c(-c2ccc(F)cc2)[nH]c2c(F)cc(F)cc12 [Compound 503, 3-(2-ethoxyethyl)-5,7-difluoro-2-(4-fluorophenyl)-1H-indole] | > 1000
47 | CC(C)(O)C#Cc1c(-c2ccc(F)cc2)[nH]c2c(F)cc(F)cc12 [Compound 523, 4-[5,7-difluoro-2-(4-fluorophenyl)-1H-indol-3-yl]-2-methyl-but-3-yn-2-ol] | > 1000
48 | O=C(NCCc1c(-c2ccc(F)cc2)[nH]c2c(F)cc(F)cc12)C1CNC1=O (centres unmarked) [Compound 350] | > 1000
49 | O=C(NC[C@@H](O)CO)OCCc1c(-c2ccc(F)cc2)[nH]c2c(F)cc(F)cc12 [Compound 476] | > 1000
50 | CN(C)S(=O)(=O)NCCc1c(-c2ccc(F)cc2)[nH]c2c(F)cc(F)cc12 [Compound 425] | > 1000
51 | O=C(NCCc1c(-c2ccc(F)cc2)[nH]c2c(F)cc(F)cc12)NCC(O)C(F)F (centres unmarked) [Compound 267] | > 1000
52 | O=C(NCCc1c(-c2ccc(F)cc2)[nH]c2c(F)cc(F)cc12)N[C@H]1CCNC1=O [Compound 277] | > 1000
53 | CC(CCO)NC(=O)OCCc1c(-c2ccc(F)cc2)[nH]c2c(F)cc(F)cc12 (racemic) [Compound 457] | 250 to 1000
54 | O=C(CCc1c(-c2ccc(F)cc2)[nH]c2c(F)cc(Cl)cc12)NCCO [Compound 199] | 250 to 1000
55 | O=C(NCCc1c(-c2ccc(F)cc2)[nH]c2c(F)cc(F)cc12)c1ccnc(C(F)(F)F)c1 [Compound 369] | > 1000
56 | Cn1cnc(C(=O)NCCc2c(-c3ccc(F)cc3)[nH]c3c(F)cc(F)cc23)c1 [Compound 389] | > 1000
57 | NC(=O)[C@@H](CO)NC(=O)OCCc1c(-c2ccc(F)cc2)[nH]c2c(F)cc(F)cc12 [Compound 447] | < 250
58 | O=C(NCCc1c(-c2ccc(F)cc2)[nH]c2c(F)cc(F)cc12)NC(CO)CF (centres unmarked) [Compound 259, 1-[2-[5,7-difluoro-2-(4-fluorophenyl)-1H-indol-3-yl]ethyl]-3-[1-(fluoromethyl)-2-hydroxy-ethyl]urea] | 250 to 1000
59 | C[C@H](CO)NC(=O)OCCc1c(-c2ccc(F)cc2)[nH]c2c(F)cc(F)cc12 [Compound 445] | < 250
60 | CC(NC(=O)OCCc1c(-c2ccc(F)cc2)[nH]c2c(F)cc(F)cc12)C(N)=O (racemic) [Compound 460] | 250 to 1000
61 | COC1CC1NC(=O)OCCc1c(-c2ccc(F)cc2)[nH]c2c(F)cc(F)cc12 (centres unmarked) [Compound 479] | > 1000
62 | O=C(N[C@H]1C[C@H](O)C1)OCCc1c(-c2ccc(F)cc2)[nH]c2c(F)cc(F)cc12 [Compound 464] | 250 to 1000
63 | CS(=O)(=O)CCNC(=O)NCCc1c(-c2ccc(F)cc2)[nH]c2c(F)cc(F)cc12 [Compound 287] | > 1000
64 | CC(CCO)NC(=O)CCc1c(-c2ccc(F)cc2)[nH]c2c(F)cc(F)cc12 (racemic) [Compound 147] | > 1000
65 | CS(=O)(=O)CC(=O)NCCc1c(-c2ccc(F)cc2)[nH]c2c(F)cc(F)cc12 [Compound 382] | > 1000
